Consider three compounds from US20230295118A1 (EnhancedBio Inc., priority 2022, published 2023).

Where only a bound is given, the exact number is not on record here.

For assay [1], the target named is T1, CDK6 (Homo sapiens, UniProt Q00534).
T1 construct: endogenous in cells
As to the kind of experiment: CDK6 degradation (DC50, Dmax). It is filed as cell-based.

For assay [2], the system named is mantle cell lymphoma cell (Mino or JeKo-1). Nature of the assay: Antiproliferative effect, MTS cell viability assay. It is filed as cell-based. As to conditions: 72 h; for IC50: mantle cell lymphoma cell (Mino or JeKo-1), MTS assay, read-out: IC50 (anti-proliferation); for inhibition of cell proliferation of Mino cells: 0-1 μM, result in words. An outline of the steps:
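Mino cells treated with compounds at 0, 0.0001, 0.001, 0.01, 0.1, 1 μM for 72 h; palbociclib and abemaciclib as positive controls. Viability by MTS, formazan absorbance read at 490 nm.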
A general note: Tetrazolium assays rely on reduction of a dye to a coloured formazan, in cell work by metabolically active cells.

Assay [3] concerns Mino xenograft tumor. Nature of the assay: In vivo tumor inhibition efficacy, Mino xenograft. The following applies: NOD/SCID mice, 20 mg/kg via oral gavage for 3 weeks; result in words. The method, then:
Mino cells were obtained from American Type Culture Collection (ATCC, Manassas, VA). Cells were maintained in RPM 1640 (Life Technologies, Grand Island, NY) supplemented with 10% heat-inactivated fetal bovine serum (56° C. for 30 minutes), penicillin (10 000 units/mL; Sigma, St Louis, Mo), streptomycin (10 mg/mL; Sigma), gentamicin (50 mg/mL; Life Technologies), amphotericin B (25 mg/mL; Sigma), and L-glutamine (200 mM, 29.2 mg/mL; Life Technologies), culture, as previously described (29, 30). Mino cells (10 million) were subcutaneously implanted into the flank of NOD/SCID mice. When the average tumor volume reached approximately 300 cubic millimeters (mm^3), the following treatments were administered in cohorts of 5 mice for each treatment: vehicle alone, 20 mg/kg abemaciclib, 20 mg/kg Compound 90, or 20 mg/kg Compound 94 via oral gavage for 3 weeks. Tumor growth was monitored twice weekly by calipers and tumor volume was calculated using the equation: (½ (length×width^2)).

Assay [4] has as its target T2, CDK4 (Homo sapiens, UniProt P11802).
T2 construct: endogenous in cells
As to the kind of experiment: CDK4 degradation (DC50, Dmax). The assay is classed as cell-based.

Assay [5] deals with CDK4/6. As to the kind of experiment: CDK4/6 degradation in A375 melanoma cells (FIG. 1). It is filed as cell-based. As to conditions: result in words.

T2 sequence (P11802 whole entry): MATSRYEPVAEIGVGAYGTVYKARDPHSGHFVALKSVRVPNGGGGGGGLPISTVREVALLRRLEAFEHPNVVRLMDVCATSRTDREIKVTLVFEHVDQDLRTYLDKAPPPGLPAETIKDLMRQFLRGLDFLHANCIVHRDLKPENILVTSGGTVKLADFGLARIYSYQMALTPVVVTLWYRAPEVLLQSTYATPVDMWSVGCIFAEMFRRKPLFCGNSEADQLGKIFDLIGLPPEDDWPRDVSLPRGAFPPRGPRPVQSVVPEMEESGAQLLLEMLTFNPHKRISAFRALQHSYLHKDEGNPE
T1 sequence (Q00534 whole entry): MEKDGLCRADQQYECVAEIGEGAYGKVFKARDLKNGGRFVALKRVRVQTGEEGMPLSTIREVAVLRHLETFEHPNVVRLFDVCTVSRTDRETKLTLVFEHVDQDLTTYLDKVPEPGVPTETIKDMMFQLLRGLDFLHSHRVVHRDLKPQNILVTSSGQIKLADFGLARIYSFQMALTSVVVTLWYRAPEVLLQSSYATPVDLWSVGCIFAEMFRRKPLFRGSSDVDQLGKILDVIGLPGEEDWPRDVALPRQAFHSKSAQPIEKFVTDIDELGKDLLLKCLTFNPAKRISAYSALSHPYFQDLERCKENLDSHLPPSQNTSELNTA

On to `Cc1nc2c(F)cc(-c3nc(Nc4ccc(CN5CCN(CCNc6ccc7c(c6)C(=O)N(C6CCC(=O)NC6=O)C7=O)CC5)cn4)ncc3F)cc2n1C(C)C` (stereo not drawn) [Compound 90, 2-(2,6-dioxopiperidin-3-yl)-5-((2-(4-((6-((5-fluoro-4-(4-fluoro-1-isopropyl-2-methyl-1H-benzo[d]imidazol-6-yl)pyrimidin-2-yl)amino)pyridin-3-yl)methyl)piperazin-1-yl)ethyl)amino) isoindoline-1,3-dione], for which, in assay [1], the DC50 was < 50 nM and the Dmax was > 80%. Further, in assay [2], the IC50 is < 50 nM and the “inhibition of cell proliferation of Mino cells” value (shortened to “inhibition”) is recorded as “dose-dependent inhibition of cell proliferation”. In addition, the “Mino xenograft tumor growth” value in assay [3] is given as “inhibiting Mino xenograft tumor growth”. For the same compound, in assay [4], the DC50 is < 50 nM and the Dmax is > 80%.

Turning to `Cc1nc2c(F)cc(-c3nc(Nc4ccc(CN5CCN(CC6CN(c7ccc8c(c7)C(=O)N(C7CCC(=O)NC7=O)C8=O)C6)CC5)cn4)ncc3F)cc2n1C(C)C` (stereo not drawn) [Compound 94, 2-(2,6-dioxopiperidin-3-yl)-5-(3-((4-((6-((5-fluoro-4-(4-fluoro-1-isopropyl-2-methyl-1H-benzo[d]imidazol-6-yl)pyrimidin-2-yl)amino)pyridin-3-yl)methyl)piperazin-1-yl)methyl)azetidin-1-yl)isoindoline-1,3-dione], in assay [1], the DC50 was < 50 nM and the Dmax is > 80%. Also, in assay [2], the IC50 is < 50 nM and the “inhibition” value is “dose-dependent inhibition of cell proliferation”. In addition, in assay [3], the “Mino xenograft tumor growth” value is recorded as “inhibiting Mino xenograft tumor growth”. Besides, in assay [4], the DC50 is < 50 nM and the Dmax was > 80%.

As for `CC(=O)c1c(C)c2cnc(Nc3ccc(N4CCN(C(=O)CNc5ccc6c(c5)C(=O)N(C5CCC(=O)NC5=O)C6=O)CC4)cn3)nc2n(C2CCCC2)c1=O` (stereo not drawn) [Compound 104, 5-((2-(4-(6-((6-acetyl-8-cyclopentyl-5-methyl-7-oxo-7,8-dihydropyrido[2,3-d]pyrimidin-2-yl)amino)pyridin-3-yl)piperazin-1-yl)-2-oxoethyl)amino)-2-(2,6-dioxopiperidin-3-yl)isoindoline-1,3-dione], the CDK4/6 degradation result in assay [5] is “dose-dependent CDK4/6 degradation”. In addition, in assay [1], the DC50 is 50 to 200 nM and the Dmax was > 60%. In assay [2], the IC50 is < 50 nM and the “inhibition” value was “dose-dependent inhibition of cell proliferation”. Further, in assay [4], the DC50 was in the range of 50 to 200 nM and the Dmax is > 60%.

The DC50 is the midpoint of the concentration-degradation curve. One may read the Dmax as the largest share of the target that was removed. The low end stands for shallow degradation, the high end for deep degradation.
